Columns and labels:
[1] = solid UV absorption spectrum of a film of the screened compound dispersed in white petroleum jelly; type: physicochemical; conditions: 5 g screened compound per 100 g petroleum jelly "Codex 236", film 10 Am thick, Shimadzu UV 2101 PC spectrophotometer
Excerpt: This 2,4,6-tris[(3′-benzotriazol-2-yl-2′-hydroxy-5′-methyl)phenylamino]-s-triazine was screened at 50 μm through a screen of stainless steel-gauze stainless steel assembly. Next, it was dispersed in white petroleum jelly sold under the trade name “Codex 236” by the company Sarega at the melting point of the petroleum jelly and in a proportion of 5 g of screened 2,4,6-tris[(3′-benzotriazol-2-yl-2′-hydroxy-5′-methyl) phenylamino]-s-triazine per 100 g of petroleum jelly. This mixture was then treated with ultrasound in order to ensure homogeneous dispersion. A film 10 Am thick was analysed.
The solid UV absorption spectrum was obtained using a Shimadzu UV 2101 PC spectrophotometer and is represented in FIG. 1.
The solid UV absorption spectrum of this 2,4,6-tris[(3′-benzotriazol-2-yl-2′-hydroxy-5′-tert-octyl)phenylamino]-s-triazine was measured according to the same procedure as in Example 1. This spectrum is represented in FIG. 2.

UV absorption in CHCl3 = type: physicochemical

Row | SMILES | melting point [°C] | solid UV absorption spectrum: range absorbed [1] | UV λmax (UV absorption in CHCl3; CHCl3) [nm] | UV εmax (UV absorption in CHCl3; CHCl3, at λmax)
1 | Cc1cc(Nc2nc(Nc3cc(C)cc(-n4nc5ccccc5n4)c3O)nc(Nc3cc(C)cc(-n4nc5ccccc5n4)c3O)n2)c(O)c(-n2nc3ccccc3n2)c1 [Example 1, 2,4,6-tris[(3′-benzotriazol-2-yl-2′-hydroxy-5′-methyl)phenylamino]-s-triazine] | > 270 | absorbs throughout the UV radiation range (280-400 nm) |  | 
2 | CC(C)(C)CC(C)(C)c1cc(Nc2nc(Nc3cc(C(C)(C)CC(C)(C)C)cc(-n4nc5ccccc5n4)c3O)nc(Nc3cc(C(C)(C)CC(C)(C)C)cc(-n4nc5ccccc5n4)c3O)n2)c(O)c(-n2nc3ccccc3n2)c1 [Example 2, 2,4,6-tris[(3′-benzotriazol-2-yl-2′-hydroxy-5′-tert-octyl)phenylaminol]-s-triazine] |  | absorbs throughout the UV radiation range (280-400 nm) | 326 | 68,600

Source: patent US6361764B1, “Insoluble s-triazine derivatives and their use as UV filters” (Societe L'Oreal S.A., priority 1996, dated 2002)
